This is an account of results in US20150374709A1, “TETRA-SUBSTITUTED NDGA DERIVATIVES VIA ETHER BONDS AND CARBAMATE BONDS AND THEIR SYNTHESIS AND PHARMACEUTICAL USE” (ERIMOS PHARMACEUTICALS LLC, priority 2006, published 2015).

As a reminder, the IC50 is the concentration needed to halve the response being measured. Broadly, the EC50 is the concentration that produces a half-maximal response.

The subject of test [1] is apoptosis of cells based on DNA fragmentation. The experiment in a line: TiterTACS DNA fragmentation apoptosis assay. It is filed as cell-based. The note with it: TiterTACS apoptosis detection. As to the method:
Antiproliferative activity is determined using the TiterTACS® Apoptosis Detection Kit (R&D Systems Inc., Minneapolis, Minn. USA) relating to apoptosis of cells based on DNA fragmentation, and by the ELISA VEGF ([…]) and survivin assays.
In the DNA fragmentation assay, in situ detection of apoptosis is specifically achieved with TiterTACS® 96-well Apoptosis Detection kit, Catalog No. TA600 (R&D Systems, Inc.). The TiterTACS® assay provides quantification of apoptosis in cultured cells without direct counting of labeled cells using colorimetric detection. Cells are treated with the test compounds, left untreated as experimental negative controls, or treated with TACS nuclease as positive controls. TACS nuclease allows positive controls to be generated for each experimental system: a brief treatment of cells with the TACS nuclease prior to labeling generates DNA breaks in every cell, providing an appropriate positive control specific for the system under study. The TdT enzyme that catalyzes the addition of dNTPs to DNA fragments allows for colorimetric detection of at 450 nm by using a streptavidin-HRP solution followed by the TACS-Sapphire substrate. A high absorbance at 450 nm is indicative of apoptosis in the cells. Treated cells are compared to untreated cells and to nuclease-cleaved cells to assess the extent of apoptosis.

Test [2] relates to HeLa (cervical adenocarcinoma). The experiment in a line: MTS cell viability assay, HeLa. It counts as cell-based. Conditions: read-out: HeLa IC50. An excerpt:
(§1) Studies performed regarding cytotoxicity included the well-known MTS, Trypan Blue and MTT protocols. The MTS studies were done using the CellTiter 96®AQueous One Solution Cell Proliferation Assay (Promega Corporation, Madison, Wis. USA). Metabolically active, namely viable, cells turn MTS, a tetrazolium compound (3-(4,5-dimethylthiazol-2-yl)-5-(3-carboxymethoxyphenyl)-2-(4-sulfophenyl)-2H-tetrazolium, inner salt) into colored formazan, which is soluble in tissue culture medium. The measurement of the absorbance of the formazan is read at 490 nm. The ready to use reagent is added directly to the cells in media in 96-well plates, incubated 1-4 hours and the results are recorded by the plate reader. The IC50 is estimated by graphing the gathered data. The IC50 is the concentration of the tested material that inhibits 50% of growth or viability of the tested material compared to a control.
(§2) Three cell lines obtained from ATCC and maintained as directed by ATCC were tested: HeLa (cervical adenocarcinoma), A549 (lung carcinoma), and COS-7 (SV40 transformed monkey kidney). Studies of these cell lines are considered to be indicative of the effect of tested substances on mammalian, including human, diseases.
(§3) All compounds were dissolved in DMSO and DMSO is used as the placebo. The samples were first dissolved into 10 mM dilutions in DMSO and then diluted further to 5, 1, 0.5, 0.1, 0.05, and 0.01 mM solutions. These solutions were added to the media at a 1% concentration (1 μl to 100 μl media) to treat the cells with 100, 50, 10, 5, 1, 0.5, and 0.1 μM of the compound. […] Solutions were checked before use for precipitation, especially the 10 mM solutions. If there was precipitation, they were warmed 65° C. and added to warmed media.
(§4) Wells on a 96-well plate were seeded with 1.5-8×10^4 cells in 100 μl media and incubated overnight. The outside wells of the plate were filled with 200 μl sterile, deionized (DI) water to curb media evaporation. After 24 hours, test chemicals were prepared in media at a concentration of 1% media volume. The test sample media were added, mixing with pipette before adding 100 μl per well. Media was added to the “Media Only” wells. The well plate and its contents were incubated for 24-72 hours, depending on the study conducted. On the thy of the MTS assay, the MTS reagent was removed from the refrigerator and brought to room temperature. Using the multichannel pipette, 20 μl of the MTS reagent was added to each well and incubated for one to four hours. The plate was read at 490 nm with a reference wavelength of 690 nm after one hour in the incubator thereafter until the blank wells were at about 0.2 OD. The results were then scanned into a Microsoft® Excel® template designed to perform all necessary calculations whim data are entered. The data were checked for statistical errors; data points that are within 10% of the mean of the data points for that group were included. The average of the blanks (“Media Only”) were subtracted and the data were inserted into a chart that represents growth response, treated/untreated.
In general terms: Formazan colour is commonly taken as a measure of viable cells.

Test [3] deals with MCP-1. The test can be described thus: MCP-1 protein production in TNF-α-treated primary human keratinocytes. It is filed as cell-based. As to the method: Anti-inflammatory activity was determined based on the effect of tested compounds on primary human keratinocytes (PHKs). PHKs play an important role in inflammatory processes, synthesizing a number of cytokines, adhesion molecules and growth factors. Studies were conducted to determine whether tested compounds could inhibit keratinocytes to prevent or reduce production of interferon gamma (IFN-γ), interleukin-8 (IL-8), tumor necrosis factor alpha (TNF-α), granulocyte/macrophage colony-stimulating factor (GM-CSF), intercellular adhesion molecule-1 (ICAM-1, also known as CD54) and monocyte chemotactic protein-1 (MCP-1). PHKs are first treated with TNF-α to induce a pro-inflammatory state and release of pro-inflammatory cytokines. Specific cytokines are then assayed following manufacturer's instructions using R&D Systems. Inc.'s protein assays (Quantikine ELISA kits; Catalog Nos. DCP00 for MCP-1 kit, DCM00 for GM-CSF kit, and DIF50 for IFN-γ).
Anti-inflammatory activity of several of the compounds of the previously described working examples was determined based on the effect of tested compounds on primary human keratinocytes (PHKs) as described above and following the manufacturer's instructions for the various kits used in the studies. While these studies more typically are used mostly for anti-inflammatory investigations, they can also apply to vascular diseases, since the results in keratinocytes may be extrapolated to vascular endothelium.
Only MCP-1 data with PHKs is dose-dependent, so an IC50 for MCP-1 can be calculated, but not for the other cytokines.

Test [4] relates to VEGF. The test can be described thus: ELISA VEGF assay (DFO-treated cells). Conditions: VEGF released into media by DFO-treated cells, normalized to cell count; read-out: VEGF IC50. It counts as cell-based, Human. An excerpt:
ELISA (Enzyme-Linked ImmunoSorbent Assay) VEGF studies were done following manufacturer's instructions using the Endogen® Human VEGF ELISA kit, Catalog No. […] (Pierce Biotechnology, Inc., Rockford, Ill. USA). Hypoxic conditions are created for the cells by treating them with desferrioxamine (DFO), which chelates iron and causes the cells to secrete VEGF into the media. The supernatant (media) was removed and frozen for testing, and the cells were counted with the Trypan Blue assay so that the results can be normalized to cell count. The VEGF is measured with a sandwich ELISA that captures the protein in media on an antibody-coated microplate, and then uses a biotinylated antibody reagent to detect the protein. Results from a standard curve enable the user to quantify the amount of protein in each sample.

Test [5] deals with survivin. The experiment in a line: ELISA survivin assay (cell lysates). It counts as cell-based, Human. The note with it: survivin protein in cell lysates, normalized to total protein; read-out: Survivin IC50. An excerpt: Survivin is an inhibitor of apoptosis that is abundantly expressed in many human cancers, but not in normal adult human tissue, and is considered a possible modulator of the terminal effector phase of cell death/survival. Survivin is expressed in G2-M in a cell cycle-dependent manner, binding directly to mitotic spindle microtubules. […] Phosphorylated survivin acts on the caspase pathway to suppress the formation of caspase-3 and caspase-9, thereby inhibiting apoptosis. Thus, compounds that reduce the expression of survivin will be expected to increase the rate of apoptosis and cell death.
Effects of the tested compounds on survivin were studied following manufacturer's instructions using the Surveyor™ IC Human Total Survivin Immunoassay, Catalog No. SUV647 (R&D Systems, Inc.). Cell lysates were analyzed for survivin protein content. The kit includes a plate coated with an antibody specific for survivin and a biotinylated antibody reagent that recognizes survivin bound to the plate. The plate is read on a plate reader set at 450 nm and corrected at 540 nm. A protein assay according to the Bradford method (Bradford, M. 1976, Anal Biochem 72: 248-254) was used to quantify and normalize the samples according to total protein content. Results from a standard curve enable the user to quantify the amount of survivin protein in each sample.
On the technique in general: ELISA stands for enzyme-linked immunosorbent assay.

Test [6] relates to A549 (lung carcinoma). The experiment in a line: MTS cell viability assay, A549. Conditions: Homo sapiens. It is filed as cell-based.
From the text: as §1, §2, §3, §4

In test [7] the test system is TAT-mediated transactivation of HIV transcription (HIV-1 LTR promoter). The test can be described thus: SEAP assay of TAT-mediated transactivation (antiviral activity). It is filed as cell-based, human immunodeficiency virus (HIV). How it is done: Antiviral activity is determined using a SEAP (SEcreted Alkaline Phosphatase) assay, in which cells are co-transfected with SEAP and TAT plasmids. TAT is a transactivator, human immunodeficiency virus (HIV) gene expression and is one of the two or more necessary viral regulatory factors (TAT and REV) for HIV gene expression. TAT acts iv binding to the TAR RNA element and activating transcription from the long terminal repeat (LTR) promoter. […] Previous studies have shown that TAT mediates reduction of antibody-dependent T cell proliferation, contributing substantially to the failure of the immune response. TAT also directly stimulates Kaposi's cell growth.
Since TAT has no apparent cellular homologs, this strong positive regulator has become an attractive target for the development of anti-AIDS drugs. In contrast to currently available HIV reverse transcriptase inhibitors (AZT, DDI) or potential protease inhibitors that prevent new rounds of infection, an inhibitor which suppresses viral gene TAT regulated expression of integrated proviral DNA will arrest the virus at an early stage (Hsu et al., Science 254:1799-1802, 1991). Efforts aimed at the elucidation of factors which control gene expression at transcriptional and post-transcriptional levels in host eukaryotes have recently made possible quantitative assessment of TAT function (Sim, Ann. N.Y. Acad. Sci. 616: 64-70, 1990). To screen for inhibitors for TAT regulated transactivation (TAT-TRS), the SEAP reporter gene is put under the control of HIV-1 LTR promoter in the plasmid pBC12/HIV/SEAP. The TAT-coded activity is supplied by a second plasmid construct pBC12/CMV/t2. Transient co-transfection of COS-7 cells with these two plasmids leads to secretion of alkaline phosphatase into the culture medium which is analyzed by a simple colorimetric assay (Berger et al., Gene 66: 1-10, 1988). […]
In the SEAP assay, an inhibitor should cause reduction of SEAP reporter gene expression via transactivation of the HIV-1 LTR promoter by TAT protein (TAT-TRS). […] SEAP is detected colorimetrically by the para-nitrophenyl phosphate substrate at 405 nm. […] The cells are analyzed by the MTT assay to compare cytotoxicity to SEAP inhibition. […]
COS-7 (green monkey kidney) cells were co-transfected using Fugene 6 reagent (Roche Applied Science, Cat. No. 11815091001, Indianapolis, Ind., USA) with two plasmids: pHIVSEAP (SEAP expression vector under the control of the HIV LTR promoter) and pCTAT (HIV TAT transcription factor expression vector under the control of a CMV (cytomegalovirus) promoter). After test compound treatment for 48 hours, samples were analyzed for […] at 405 nm after addition of the p-nitrophenyl phosphate substrate. The percentage of SEAP activity inhibition was calculated in relation to the placebo control.

The subject of test [8] is COS-7 cells. The test can be described thus: MTT cytotoxicity assay in COS-7 cells (run with SEAP). It is filed as cell-based, green monkey. Conditions: COS-7 test cells of the SEAP assay.
Description: The MTT assay is a colorimetric method for determining the number of viable cells. Metabolically active cells turn the MIT reagent, (3-(4,5-dimethylthiazol-2-yl)-2,5-diphenyltetrazolium bromide, into purple-colored formazan crystals that are solubilized in dimethyl sulfoxide (DMSO). The MTT reagent is added to MTT (colorless) media. The media is added to the cells and they are incubated for 4 hours. DMSO is added to the cells and mixed. The colored solutions are then read at 540 nm and corrected at 630 nm. The IC50 is estimated by graphing the gathered data.
The cells are analyzed by the MTT assay to compare cytotoxicity to SEAP inhibition. The goal is for the drug to inhibit SEAP without being too toxic.
The MTT assay measures cellular-proliferation and is used to verify that the levels of SEAP activity are not solely due to cytotoxicity. These assays was used in screening for potential drug compound leads as antiviral agents, and particularly, anti-HIV candidates.
Setting [9] is: read-out: MCP-1 IC50; TNF-α-treated PHK.

Several values for one entry are separate records, joined by “and”; a condition that tells them apart may be missing. Equal values may be shown once. Where a name gives a salt, the structure may show the parent alone. Read-outs that look alike come from different tables or passages of the source. Bounds are passed on as bounds.

Take `C[C@H](Cc1ccc(OCCCN2CCCCC2)c(OCCCN2CCCCC2)c1)[C@@H](C)Cc1ccc(OCCCN2CCCCC2)c(OCCCN2CCCCC2)c1.Cl.Cl.Cl.Cl` [Compound B, 1,4-bis{3,4-bis[3-(piperidin-1-yl)propoxy]phenyl}-2,3-dimethyl-(2R,3S)-butane tetrakis-hydrochloride salt]: the DNA fragmentation result in test [1] is recorded as “Negative”. Besides, the half-inhibitory concentration (IC50) in test [2] (MTS assay) was 1 to 5 µM; in test [3] (TNF-α-treated PHK; read-out: MCP-1 IC50) it was 2 µM; in test [4] it was ~2 µM and 2 µM.
In the case of `C[C@H](Cc1ccc(OCCCCN2CCOCC2)c(OCCCCN2CCOCC2)c1)[C@@H](C)Cc1ccc(OCCCCN2CCOCC2)c(OCCCCN2CCOCC2)c1` [Compound M, 1,4-bis{3,4-bis[4-(N-morpholino)butoxyl]phenyl}-2,3-dimethyl-(2R,3S)-butane], the DNA fragmentation result in test [1] is reported as “Positive”. For the same compound, the IC50 was 5 µM in test [5]; 5 to 10 µM in test [2] (Homo sapiens, HeLa, MTS assay); 1 to 5 µM in test [6] (A549, MTS assay, read-out: A549 IC50); ~9 µM and 9 µM in test [4].
`C[C@H](Cc1ccc(OCCO)c(OCCO)c1)[C@@H](C)Cc1ccc(OCCO)c(OCCO)c1` [Compound I, 1,4-bis{3,4-bis(2-hydroxyethoxy)phenyl}-2,3-dimethyl-(2R,3S)-butane]: the IC50 is 20 to 30 µM in test [2] (Homo sapiens, HeLa); 25 µM in test [3] (setting [9]); 65 to 70 µM in test [6] (A549, read-out: A549 IC50). The EC50 in test [7] (Human immunodeficiency virus 1, COS-7, 48 h, read-out: SEAP EC50) is 60 to 80 µM.
Turning to `Cc1nc(COc2ccc(C[C@@H](C)[C@@H](C)Cc3ccc(OCc4csc(C)n4)c(OCc4csc(C)n4)c3)cc2OCc2csc(C)n2)cs1` [Compound F, 1,4-bis{3,4-bis(2-methyl-thiazol-4-yl-methoxy)phenyl}-2,3-dimethyl-(2R,3S)-butane tetrakis-hydrochloride salt], the half-maximal inhibitory concentration (IC50) in test [2] (Homo sapiens, HeLa) was > 100 µM; in test [3] (setting [9]) it was > 100 µM; in test [6] (A549, read-out: A549 IC50), > 100 µM. Further, the “COS-7 IC50” value in test [8] is reported as “Variable”. Also, the “SEAP EC50” value in test [7] (COS-7 cells co-transfected with pHIVSEAP and pCTAT, 48 hours treatment) is on record as “Variable”.
